Test results published in patent US20210308286A1 (The Johns Hopkins University, priority 2018, published 2021).
Like-named read-outs stand apart in the source and are kept apart here. Non-standard residues stand in square brackets, D forms with d. Residues, ends and D or L forms follow the SMILES beside them. ξ: configuration not given here. *: point of attachment. X1 = C=Cc1c(C)c2cc3nc(c4c5[nH]c(cc6nc(cc1[nH]2)C(C)=C6CC)c(C)c5C(=O)C4)[C@@H](CCC(=O)*)[C@H]3C; X2 = O=C(O)CC[C@H](NC(=O)N[C@@H](CCCCNC(=O)CCCCCCC(=O)*)C(=O)O)C(=O)O; ξE = NC(CCC(=O)O)C(=O)O; ξD = NC(CC(=O)O)C(=O)O; ξK = NCCCCC(N)C(=O)O; ξV = CC(C)C(N)C(=O)O; ξS = NC(CO)C(=O)O

What was measured:
[1] = target: T1, PSMA (Homo sapiens, UniProt Q04609); test: Fluorescence-based PSMA inhibition assay (NAAG hydrolysis by LNCaP cell lysates, Amplex Red); type: biochemical; details: 4 μM NAAG, Cheng-Prusoff conversion, n=3
T1 construct: endogenous in cells; host or cells: LNCaP cell lysate
Experimental: Briefly, lysates of LNCaP cells (25 μL in 0.1 M Tris-HCl, pH 8.0) were incubated with the serial dilutions of the test compounds (in 12.5 μL of 0.1 M Tris-HCl, pH 8.0) in the presence of 4 μM N-acetylaspartylglutamate (NAAG) (in 12.5 μL of 0.1 M Tris-HCl, pH 8.0) for 120 minutes. The reaction mixtures were incubated with the working solution (50 μL) of the Amplex Red Glutamic Acid Kit (Molecular Probes Inc., Eugene, Oreg.) for 60 minutes. The amount of glutamate released from NAAG hydrolysis by the LNCaP lysates was determined by measuring the fluorescence generated from the reactions using the Cytation 5 plate reader (BioTek, Winooski, Vt.) with excitation at 545 nm and emission at 590 nm. […] Enzyme inhibitory constants (Ki values) were generated using the Cheng-Prusoff conversion. […] Data analysis was performed using GraphPad Prism software (n=3).
Target sequence in this assay (Q04609 whole entry): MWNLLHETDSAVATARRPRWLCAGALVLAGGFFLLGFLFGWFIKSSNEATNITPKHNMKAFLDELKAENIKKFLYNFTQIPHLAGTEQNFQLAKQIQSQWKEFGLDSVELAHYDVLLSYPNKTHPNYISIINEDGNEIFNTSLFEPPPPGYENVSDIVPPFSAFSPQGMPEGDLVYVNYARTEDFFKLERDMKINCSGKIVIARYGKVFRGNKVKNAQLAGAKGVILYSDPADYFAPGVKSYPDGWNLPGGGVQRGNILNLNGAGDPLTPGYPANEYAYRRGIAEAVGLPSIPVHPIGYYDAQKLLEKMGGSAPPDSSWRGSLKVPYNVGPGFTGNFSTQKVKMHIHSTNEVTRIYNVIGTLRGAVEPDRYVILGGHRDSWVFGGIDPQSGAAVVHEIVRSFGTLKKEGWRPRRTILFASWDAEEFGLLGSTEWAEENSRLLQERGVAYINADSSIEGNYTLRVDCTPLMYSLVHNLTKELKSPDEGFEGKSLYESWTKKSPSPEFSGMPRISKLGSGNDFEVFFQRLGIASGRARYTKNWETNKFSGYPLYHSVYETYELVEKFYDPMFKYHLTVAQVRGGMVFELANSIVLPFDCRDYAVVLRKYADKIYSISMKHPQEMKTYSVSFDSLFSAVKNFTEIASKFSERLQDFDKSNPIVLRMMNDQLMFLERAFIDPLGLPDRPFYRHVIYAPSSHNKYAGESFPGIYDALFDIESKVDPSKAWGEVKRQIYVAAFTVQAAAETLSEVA

[2] = system: PSMA+ PC3 PIP cells; type: cell-based; details: flow cytometry, time-dependent
[3] = target: T1, PSMA; test: biochemical
Target sequence in this assay (Q04609 whole entry, looked up): as the sequence (Q04609 whole entry) above

[4] = system: PSMA+ PC3 PIP and PSMA− PC3 flu subcutaneous tumors; details: 20 nmol intravenous; for tumor accumulation, whole-animal in vivo fluorescence imaging: 24 hours post-administration; for ex vivo organ distribution / clearance route: 24 hours, ex vivo fluorescence
[5] = Plasma blood clearance (pharmacokinetics) after intravenous injection; type: in vivo, BALB/c mice; details: for half-life: BALB/c, 20 nmol per animal, 20 nmol intravenous, plasma fluorescence over 48 hours, n=5
[6] = system: PSMA+ PC3 PIP tumor; test: In vivo PSMA inhibition with excess […], ex vivo tumor fluorescence; parameters: species or system athymic male nude mice; details: 15 nmol LC-Pyro intravenous, 24 hours post-injection
[7] = system: PSMA+ PC3 PIP subcutaneous tumor
[8] = system: PSMA+ (PC3-ML-1124) and PSMA− (PC3-ML-1117) metastatic nodules; test: Fluorescence detection of prostate metastasis; type: in vivo, mice; details: 20 nmol via tail vein, 24 hours post-injection
[9] = system: PSMA+ PC3 PIP orthotopic prostate tumor; test: ^64Cu-LC-Pyro PET/CT and gamma-counting biodistribution, PSMA+ orthotopic model; details: PSMA+ PC3 PIP orthotopic tumor mice, 24 hours post-injection, mean ± SD, n=4
Description: Organs of interest, including the tumor, prostate, seminal vesicles, testes, heart, spleen, lungs, liver, kidneys, adrenal, stomach, small intestine, large intestine, skin, fat, muscle, bone and brain were excised, washed in saline, dried with absorbent tissue, weighed, and counted on a gamma-counter Wizard® 1480 well-type automatic gamma counter (PerkinElmer Inc.; Shelton, Conn.). Radioactivity measured in each organ was decay-corrected and expressed as the percentage of the injected dose per gram of tissue (% ID/g).

[10] = system: low-risk, localized prostate cancer; details: vascular targeted PDT, cited from earlier work
[11] = LC-Pyro+Laser group, 24 hours post-PDT

C=Cc1c(C)c2cc3nc(c4c5[nH]c(cc6nc(cc1[nH]2)C(C)=C6CC)c(C)c5C(=O)C4)[C@@H](CCC(=O)NCC(=O)NC(CC(=O)O)C(=O)NC(CCC(=O)O)C(=O)NC(C(=O)NC(CC(=O)O)C(=O)NCC(=O)NC(CO)C(=O)NCC(=O)NC(CCCCNC(=O)CCCCCCC(=O)NCCCC[C@H](NC(=O)N[C@@H](CCC(=O)O)C(=O)O)C(=O)O)C(N)=O)C(C)C)[C@H]3C (some centres unmarked) [LC-Pyro] (X1-G[ξD][ξE][ξV][ξD]G[ξS]G[ξK](X2)-NH2; N-terminus and C-terminus assumed)
Ki inhibitory activity against PSMA [1]: sub-nanomolar | selectivity of uptake in PSMA+ PC3 PIP vs PSMA− PC3 flu cells [2]: nonselective cell-penetrating properties | Ki [3]: 0.088 nM | tumor accumulation, whole-animal in vivo fluorescence imaging [4]: selective accumulation to the PSMA+ after 24 hours | ex vivo organ distribution / clearance route [4]: liver and kidney clearance | plasma circulation time, fold longer than SC-Pyro (single lysine linker analog) ([5]; BALB/c mice, intravenous): 8.5 fold | half-life ([5]; mouse, in vivo, iv, read-out: t1/2, fast (plasma, two-compartment model) (converted)): 0.5 h | half-life ([5]; mouse, in vivo, iv, read-out: t1/2, slow (plasma half-life, two-compartment model) (converted)): 10 h | accumulation in excised PSMA+ PC3 PIP tumors with DCIBzL (PSMA blocker) injected 30 minutes beforehand [6]: less accumulation | therapeutic effect without laser exposure ([7]; LC-Pyro only, 50 nmol intravenous): No therapeutic effect | skin phototoxicity upon daylight exposure ([7]; LC-Pyro with no laser treatment, 50 nmol intravenous): no sign of skin phototoxicity | body weight ([7]; LC-Pyro+Laser group): no decrease in body weight | H&E staining of tumor sections [7, 11]: significant damage of tissue architecture | TUNEL staining of tumor sections [7, 11]: significant cell death | tumor regrowth after day 22 ([7]; LC-Pyro+Laser group, n=4): tumor regrowth was observed in two animals | residual or recurrent disease 44 days post-PDT ([7]; LC-Pyro+Laser group, the two remaining animals): no signs of residual or recurrent disease | tumor growth ([7]; LC-Pyro+Laser: 30 nmol intravenous, 671-nm laser 100 J/cm^2 at 6 hours, single dose, n=4): significant tumor growth inhibition | uptake in metastatic nodules, in situ fluorescence imaging [8]: selective uptake | biodistribution, Tumor [9]: 9.74 % ID/g

C=Cc1c(C)c2cc3nc(c4c5[nH]c(cc6nc(cc1[nH]2)C(C)=C6CC)c(C)c5C(=O)C4)[C@@H](CCC(=O)N[C@H](CCCCNC(=O)CCCCCCC(=O)NCCCC[C@H](NC(=O)N[C@@H](CCC(=O)O)C(=O)O)C(=O)O)C(N)=O)[C@@H]3C [SC-Pyro]
Ki inhibitory activity against PSMA [1]: sub-nanomolar | tumor accumulation, whole-animal in vivo fluorescence imaging [4]: negligible accumulation within both the PSMA− and PSMA+ tumors | ex vivo organ distribution / clearance route [4]: metabolized and collected in the gallbladder | t1/2, slow (plasma half-life, two-compartment model) ([5]; mouse, in vivo, iv): 1.17 h

C=Cc1c(C)c2cc3nc(c4c5[nH]c(cc6nc(cc1[nH]2)C(C)=C6CC)c(C)c5C(=O)C4)[C@@H](CCC(=O)N[C@H](CCCCNC(=O)CCCCCCC(=O)NCCCC[C@H](NC(=O)N[C@@H](CCC(=O)O)C(=O)O)C(=O)O)C(N)=O)[C@H]3C [SC-Pyro]
Ki [3]: 0.2 nM

CC[C@H]1c2cc3[n-]c(c(CC(=O)OC)c4nc(cc5[n-]c(cc(n2)[C@@H]1C)c(C(C)=O)c5C)[C@@H](C)[C@@H]4CCC(=O)[O-])c(C(=O)NCCS(=O)(=O)[O-])c3C.[H+].[H+].[Pd+2] [padeliporfin]
patients with disease-free biopsy ([10]; 28% with standard-of-care): 49% | percentage of patients with progressive disease ([10]; 58% with standard-of-care): 28%
